Test results from PubChem BioAssay (NCI).
Values joined by “and” are separate entries in the source; they are usually repeats but may differ in a detail not shown here. Identical values can stand only once.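 A five-concentration, 48-hour dose response in 96-well plates underlies each endpoint, interpolated linearly between surrounding concentrations. GI50 is the concentration that inhibits growth by half. TGI denotes the concentration required for complete inhibition of growth.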

How the values were obtained:
Test in all cases: NCI tumour cell line growth inhibition, 48 h
SN12C renal = tested on: SN12C renal
SK-MEL-2 melanoma = tested on: SK-MEL-2 melanoma
OVCAR-3 ovarian = tested on: OVCAR-3 ovarian
HCT-15 colon = tested on: HCT-15 colon
A498 renal = tested on: A498 renal
NCI-H460 lung = tested on: NCI-H460 lung
EKVX NSCLC = tested on: EKVX NSCLC
MOLT-4 leukemia = tested on: MOLT-4 leukemia
COLO 205 colon = tested on: COLO 205 colon
RPMI-8226 leukemia = tested on: RPMI-8226 leukemia
UO-31 renal = tested on: UO-31 renal

SMILES | TGI (SN12C renal) | TGI (SK-MEL-2 melanoma) | TGI (OVCAR-3 ovarian) | TGI (HCT-15 colon) | TGI (A498 renal) | TGI (NCI-H460 lung) | TGI (EKVX NSCLC) | TGI (MOLT-4 leukemia) | TGI (COLO 205 colon) | TGI (RPMI-8226 leukemia) | TGI (UO-31 renal) | GI50 (HCT-15 colon) | GI50 (SN12C renal) | GI50 (SK-MEL-2 melanoma) | GI50 (OVCAR-3 ovarian) | GI50 (A498 renal) | GI50 (EKVX NSCLC) | GI50 (RPMI-8226 leukemia) | GI50 (UO-31 renal) | GI50 (COLO 205 colon)
COC(=O)[C@]12CC[C@H]3CN(S(=O)(=O)c4ccc(C)cc4)[C@H]([C@H]31)[C@H](c1ccco1)N2S(=O)(=O)c1ccc(C)cc1 | > 100 µM | > 100 µM | > 100 µM | > 100 µM | > 100 µM | > 100 µM | > 100 µM | > 100 µM | 45.3 µM | 86.2 µM | > 100 µM | – | – | – | – | – | – | – | – | –
Cc1ccc(C(=O)NC2C(=O)NC(C(C)C)C(=O)N3CCCC3C(=O)N(C)CC(=O)N(C)C(C(C)C)C(=O)OC2C)c2c1Oc1c(c(C(=O)NC3C(=O)NC(C(C)C)C(=O)N4CCCC4C(=O)N(C)CC(=O)N(C)C(C(C)C)C(=O)OC3C)c3nc(-c4ccccc4)c(=O)oc3c1C)N2 (centres undefined) | 0.0442 µM and 0.312 µM | 0.00278 µM | – | 0.646 µM and 0.318 µM | 0.00273 µM | – | 0.0944 µM and 0.0316 µM | 0.0314 µM | 0.0295 µM | 0.0442 µM | 0.194 µM and 0.122 µM | 15.9 nM | – | – | – | – | – | – | – | –
CCOC(=O)N1c2ccccc2N(C(=O)OCC)C1CC(=O)/C=C/c1ccccc1 | 14.4 µM | 7.38 µM | 9.95 µM | 12.9 µM | 10.6 µM | 11.1 µM | 8.54 µM | 12.4 µM | 4.17 µM | 26.6 µM | 14.7 µM | – | – | – | – | – | – | – | – | –
Cc1cn(CC(=S)NCCc2c[nH]c3ccccc23)c(=O)[nH]c1=O | > 100 µM | > 100 µM | > 100 µM | > 100 µM | > 100 µM | – | > 100 µM | > 100 µM | > 100 µM | > 100 µM | > 100 µM | – | – | – | – | – | – | – | – | –
C[C@@]12CC[C@@H](O)C[C@@H]1CC[C@H]1[C@H]2CC[C@@]2(C)[C@H](c3ccc(=O)oc3)CC[C@@]12O | 0.0272 µM | 0.0299 µM | 0.0268 µM | 0.0292 µM | 0.0445 µM | – | 0.0104 µM | – | – | – | 0.0147 µM | < 10 nM | < 10 nM | < 10 nM | < 10 nM | < 10 nM | < 10 nM | < 10 nM | < 10 nM | –
O=C(O)C1=C(CO)Oc2cc3c(cc2C1c1ccc2c(c1)OCO2)OCO3 (centres undefined) | > 100 µM | > 100 µM | > 100 µM | > 100 µM | – | > 100 µM | > 100 µM | > 100 µM | > 100 µM | > 100 µM | > 100 µM | – | – | – | – | – | – | – | – | –
C=C(C)[C@@H]1CC[C@]2(C(=O)O)CC[C@]3(C)[C@H](CC[C@@H]4[C@@]5(C)C/C(=C/c6ccco6)C(=O)C(C)(C)[C@@H]5CC[C@]43C)[C@@H]12 | – | 8.85 µM | 3.58 µM | 10.5 µM | – | – | > 100 µM | – | 4.38 µM | – | – | 2590 nM | – | 2750 nM | 1720 nM | – | 2730 nM | – | – | 2150 nM
c1ccc(-c2cc3nc4ccccc4nc3cc(-c3ccccc3)[nH][nH]2)cc1 | > 100 µM | > 100 µM | 64.7 µM | > 100 µM | 55.7 µM | > 100 µM | > 100 µM | > 100 µM | > 100 µM | > 100 µM | > 100 µM | – | – | – | – | – | – | – | – | –
C/C=C\C1OC1(C)c1cc(=O)c2c(C)cc3c(c2o1)C(=O)c1c(O)c(C2CC(C)(N(C)C)C(OC(C)=O)C(C)O2)cc(C2CC(N(C)C)C(O)C(C)O2)c1C3=O (centres undefined) | 0.0134 µM | 0.00657 µM | 0.0365 µM | 0.0291 µM | 0.0215 µM | 0.0129 µM | 0.0224 µM | 0.049 µM | 0.00901 µM | 0.0574 µM | 0.0106 µM | – | – | – | – | – | – | – | – | –
COc1cc2cc(C(=O)N3CC(CCl)c4ccc(NO)cc43)[nH]c2c(OC)c1OC (centres undefined) | 11.8 µM | 0.325 µM | 0.535 µM | > 100 µM | > 100 µM | > 37.7 µM | 2.15 µM | 0.61 µM | 2.04 µM | 0.442 µM | 0.392 µM | – | – | – | – | – | – | – | – | –
O=C1c2cc3c(cc2[C@@H]2C(O)[C@H]4O[C@H]4C4CCN1C42)OCO3 (some centres undefined) | > 37.5 µM | > 37.5 µM | > 37.5 µM | > 37.5 µM | – | > 37.5 µM | > 37.5 µM | > 37.5 µM | > 37.5 µM | > 37.5 µM | > 37.5 µM | – | – | – | – | – | – | – | – | –
COc1ccc2c(O)c1-c1c(OC)ccc(c1O)SSc1ccc(OC)c(c1O)-c1c(OC)ccc(c1O)SS2 | > 100 µM | > 100 µM | > 100 µM | – | > 100 µM | – | 44 µM | > 100 µM | > 100 µM | 7.07 µM | 14 µM | – | – | – | – | – | – | – | – | –
Nc1c(S(=O)(=O)O)cc(S(=O)(=O)O)c2ccc(N=Nc3ccccc3)c(O)c12 | > 100 µM | > 100 µM | > 100 µM | > 100 µM | > 100 µM | > 100 µM | > 100 µM | – | > 100 µM | > 100 µM | > 100 µM | – | – | – | – | – | – | – | – | –
Cc1nn(CNc2ccc(F)c(Cl)c2)c(=S)n1/N=C/c1ccc(-c2ccc(Cl)cc2Cl)o1 | – | 41.3 µM | 33.1 µM | 41.6 µM | 30.3 µM | 33.7 µM | 42.6 µM | 6.59 µM | – | 29.7 µM | 32.2 µM | – | – | – | – | – | – | – | – | –
O=C(c1ccccc1)c1ccc(N2C(=O)/C(=C/c3cccc(Oc4ccccc4)c3)N=C2c2ccccc2)c(N2C(=O)/C(=C/c3cccc(Oc4ccccc4)c3)N=C2c2ccccc2)c1 | > 100 µM | 71.2 µM | 69.8 µM | > 100 µM | > 100 µM | 80.4 µM | > 100 µM | > 100 µM | 37.1 µM | 96.4 µM | > 100 µM | – | – | – | – | – | – | – | – | –
CC(C)=CCC/C(C)=C/Cc1c2c(c3oc(-c4ccc(O)c(O)c4)c(O)c(=O)c3c1O)C=CC(C)(C)O2 | 14.5 µM | 13.7 µM | 6.34 µM | 8.39 µM | 12.9 µM | 10.9 µM | – | 8.98 µM | 5.33 µM | 9.93 µM | 10.2 µM | – | – | – | – | – | – | – | – | –
